We go through 1 molecule from patent US20090253634A1, “Methods and Compositions for the Treatment of Gastrointestinal Disorders” (MICROBIA, INC., priority 2005, published 2009).

Series [1] concerns the target T1, pepsin (Sus scrofa, UniProt P00791).
T1 construct: purchased Sigma-Aldrich P68871; host or cells: porcine gastric mucosa
In words: in vitro proteolytic stability: pepsin. Format: in vitro ADME, porcine. To be noted: pH 2.0, 37° C., up to 3 h. The procedure:
All samples were analyzed by LC/MS

The test system of series [2] is ligated loops of intestine. In words: ligated intestinal loop model in rats. Type of series: in vivo, CD rats. To be noted: center loop of the rat small intestine; 5 μg.
Procedure: The loop was roughly centered and was a length of 1-3 cm. The loops were injected with 100 μl of either SEQ ID NO:3 (5 μg) or vehicle (20 mM Tris, pH 7.5 or Krebs Ringer, 10 mM Glucose, HEPES buffer (KRGH)). Following a recovery time of 90 minutes the loops were excised. Weights were recorded for each loop before and after removal of the fluid contained therein. The length of each loop was also recorded. A weight to length ratio (W/L) for each loop was calculated to determine the effects of SEQ ID NO:3 on secretion.
To determine the effect of SEQ ID NO:3 on cGMP activity, fluid from the loop was collected in ice-cold trichloracetic acid (TCA) and stored at −80° C. for use in an assay to measure cGMP levels in the fluid. Intestinal fluid samples were TCA extracted, and cyclic GMP was measured by EIA according to procedures outlined in the Cayman Chemical Cyclic GMP EIA kit (Cayman Chemical, Ann Arbor, Mich.) to determine cyclic GMP levels in the intestinal fluid of the mouse in the presence of either SEQ ID NO:3 or vehicle.
In the case of the rat, however four loops of intestine were surgically ligated. The first three loops were distributed equally in the small intestine and the fourth loop was located in colon. Loops were 1 to 3 centimeters, and were injected with 200 μL of either SEQ ID NO:3 (5 μg) or vehicle (Krebs Ringer, 10 mM glucose, HEPES buffer (KRGH)).
A short description of series [3]: oral bioavailability in rats, radioimmunoassay (RIA) detection. Conditions: female, CD, rat, in vivo. As to the method:
Oral bioavailability was also determined using a radioimmunoassay (RIA) detection method. Female CD-1 mice (Charles River, Wilmington, Mass.) weighing approximately 25g (7-8 weeks old) or female CD rats (Charles River, Wilmington, Mass.) weighing approximately 153 g were included in this study. Monoclonal antibody, 20C1 (Brandwein et al. 1985 Infect Immun. 47:242-246), which recognizes SEQ ID NO:7 and ^125I labeled-SEQ ID NO:7, a labeled tracer, were used in these experiments. The labeled tracer was purified by HPLC using a Waters C-18u Bondapak® column (25 cm) previously equilibrated with 10 mM ammonium acetate pH 5.8. A gradient from 0 to 25% acetonitrile was applied to the column in 60 min, followed by isocratic elution at 25% acetonitrile for another 20 min. This method separated two monoiodinated forms from each other and from unlabeled precursor (Thompson et al. 1985 Anal Biochem. 148:26-36). […] The labeled tracer bad a specific activity of 2200 Ci/mmol. The tracer was stored in aliquots at −20° C. Animals were fasted overnight before administration of compounds. Animals received SEQ ID NO:3 (rats—10 mg/kg; mice 8 mg/kg) or vehicle alone (20 mM Tris-HCl, ph7.5) intravenously or orally. Blood was drawn from all dosed animals by retro-orbital eye bleeding at specific intervals and test compound levels were analyzed by radioimmunoassay (RIA). SEQ ID NO:3 was extracted from the serum or plasma using Amersham Biosciences Amprep C18 columns (100 mg). Samples (80 μL) were first diluted to 0.5 mL with start buffer (8% methanol, 0.095% TFA in water) and applied to C18 columns previously conditioned with 1 mL methanol and equilibrated with 2 mL of start buffer. […] Radioactivity was measured in a LS 6500 scintillation counter (Beckman-Coulter). The binding efficiency is defined as the percent radioactivity in the B0 sample compared to the input counts. The percent bound in each sample was calculated by the equation: […]
A standard curve was prepared by plotting % B/B0 as a function of the log SEQ ID NO:3 concentration. […] Oral Bioavailabilty (F) is calculated using the equation: […]

The subject of series [4] is response to colorectal distension. The series is described as follows: partial restraint stress-induced hyperalgesia model. Type of series: in vivo, Wistar rats. Conditions: oral 0.3 and 3.0 μg/kg; distending pressure 15 mm Hg; p<0.0001. As to the method: Five groups of female Wistar rats (weighing 200-250 g each), were surgically prepared for electromyography as described (Morteau et al. 1994 Dig Dis Sci 39:1239-48) and were used to evaluate the effects of SEQ ID NO:3 on colorectal sensitivity and compliance after a 2 hour partial restraint stress session. Partial restraint stress (PRS), a relatively mild stress, was induced as previously described (Morteau et al., 1994 Dig Dis Sci 39:1239-48). Female rats were lightly anesthetized with diethyl ether and their shoulders, upper forelimbs and thoracic trunk were wrapped in a confining harness of paper tape to restrict, but not prevent body movements. Control sham-stress animals were anesthitized but not wrapped. […] Electrical activity was recorded with an electroencephalograph (Mini VIII, Alvar, Paris, France) using a short time constant (0.03 sec.) to remove low-frequency signals (<3 Hz) and a paper speed of 3.6 cm/minute. […] Colonic pressure and balloon volume were continuously monitored on a potentiometric recorder (L6514, Linseis, Selb, Germany) with a paper speed of 1.0 cm/minute. The number of spike bursts, corresponding to abdominal contractions, was evaluated per 5-minute period. Colorectal volumes were determined as the maximal volume obtained for each stage of distension using the potentiometric recorder. […] The values were expressed as mean±SEM.

Read-outs that look alike come from different tables or passages of the source. Bridge positions count the residues as written; N and C are the ends. Peptide text beside a SMILES is read from it.

T1 sequence (P00791 60-385): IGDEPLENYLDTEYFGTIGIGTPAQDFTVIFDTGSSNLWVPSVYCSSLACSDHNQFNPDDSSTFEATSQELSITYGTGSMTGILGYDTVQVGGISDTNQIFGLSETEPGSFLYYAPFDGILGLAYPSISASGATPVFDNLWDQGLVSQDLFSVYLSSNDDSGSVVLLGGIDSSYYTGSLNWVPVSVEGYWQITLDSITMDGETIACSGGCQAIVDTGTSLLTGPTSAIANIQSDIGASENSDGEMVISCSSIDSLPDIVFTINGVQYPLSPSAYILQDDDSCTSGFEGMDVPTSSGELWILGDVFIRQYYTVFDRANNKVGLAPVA

`C[C@@H]1NC(=O)[C@@H]2CCCN2C(=O)[C@H](CC(N)=O)NC(=O)[C@@H]2CSSC[C@H](N)C(=O)N[C@H]3CSSC[C@H](NC1=O)C(=O)N[C@@H]([C@@H](C)O)C(=O)NCC(=O)N[C@H](C(=O)N[C@@H](Cc1ccc(O)cc1)C(=O)O)CSSC[C@H](NC(=O)[C@H](Cc1ccc(O)cc1)NC(=O)[C@H](CCC(=O)O)NC3=O)C(=O)N2` [SEQ ID NO:3] (H-CCEYCCNPACTGCY-OH; disulfide 1-6, 2-10, 5-13; N-terminus and C-terminus assumed): in series [1], the “Cleavage of SEQ ID NO: 3 by proteolytic substance” value was “not detectable”. For the same molecule, in series [2], the “cGMP levels in ligated loop” value is on record as “increases” and the “secretion in ligated loop” value is listed as “increases”. Also, the AUC in series [3] (10 mg/kg intravenous, read-out: AUCi.v.,(0-6h) (converted)) is 23700 ng·h/mL. Besides, the AUC in series [3] (10 mg/kg oral, read-out: AUCp.o.,(0-6h) (converted)) was 48.3 ng·h/mL. Besides, in series [3] (oral, 10 mg/kg, over 6 hours), the bioavailability (usually dose-corrected exposure relative to a reference, in per cent) is 0.2%. Moreover, in series [4], the “response to CRD after partial restraint stress” value is recorded as “reduced the response to CRD”.
